Assay [1] concerns the target T1, GTPase KRas [1-169,G12C,C118A] (Homo sapiens, UniProt P01116, C118A/G12C).
T1 construct: 1-169
Description: Coupled Nucleotide Exchange Assay (20 hours). The protocol: (§1) Purified GDP-bound KRAS protein (aa 1-169), containing either G12C or G12D, as well as C118A amino acid substitutions and an N-terminal His-tag, was pre-incubated in assay buffer (25 mM HEPES pH 7.4, 10 mM MgCl2, and 0.01% Triton X-100) with a compound dose-response titration for 20 hours. Following compound pre-incubation, purified SOS protein (aa 564-1049) and GTP (Roche 10106399001) were added to the assay wells and incubated for an additional 30 min. To determine the extent of inhibition of SOS-mediated nucleotide exchange, purified GST-tagged cRAF (aa 1-149), nickel chelate AlphaLISA acceptor beads (PerkinElmer AL108R), and AlphaScreen glutathione donor beads (PerkinElmer 6765302) were added to the assay wells and incubated for 10 minutes. The assay plates were then read on a PerkinElmer EnVision Multilabel Reader, using AlphaScreen technology, and data were analyzed using a 4-parameter logistic model to calculate IC50 values.

The target in the next assay is GTPase KRas [G12D,C118A] (Homo sapiens, UniProt P01116, C118A/G12D). The experiment in a line: Coupled Nucleotide Exchange Assay (20 hours). The protocol: as §1
GTPase KRas [G12D,C118A], sequence (P01116 whole entry G12D/C118A, looked up): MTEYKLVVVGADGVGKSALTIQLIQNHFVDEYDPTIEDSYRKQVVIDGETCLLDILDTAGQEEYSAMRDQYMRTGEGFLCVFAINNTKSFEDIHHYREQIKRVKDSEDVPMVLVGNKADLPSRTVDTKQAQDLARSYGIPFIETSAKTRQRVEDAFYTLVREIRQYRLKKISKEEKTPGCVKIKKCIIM
The target of assay [2] is T1, GTPase KRas [1-169,G12C,C118A]. Description: Coupled Nucleotide Exchange Assay (5min). The protocol: as §1, with “either 5 min.” for “20 hours.”

pIC50: −log10 of the molar value.

T1 sequence (P01116 1-169 G12C/C118A): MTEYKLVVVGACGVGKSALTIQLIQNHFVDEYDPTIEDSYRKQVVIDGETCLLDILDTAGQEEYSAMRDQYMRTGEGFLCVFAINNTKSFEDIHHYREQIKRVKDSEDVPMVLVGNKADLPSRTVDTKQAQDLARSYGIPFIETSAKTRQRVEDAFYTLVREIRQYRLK

The term pIC50 denotes the IC50 on a negative log10 scale, so that one unit is a factor of ten. A low value points to a large IC50. On to `CC(=O)C(=O)N1CCN(c2nc(=O)n(-c3c(C)ccnc3C(C)C)c3nc(-c4ccccc4F)c(Cl)cc23)[C@@H](C)C1` [US20240190862, Example 3], for which the pIC50 was 4.50 in assay [1] and less than 3.60 against GTPase KRas [G12D,C118A].
In the case of `Cc1ccnc(C(C)C)c1-n1c(=O)nc(N2CCN(C(=O)C=O)C[C@@H]2C)c2cc(Cl)c(-c3ccccc3F)nc21` [US20240190862, Example 4], the pIC50 in assay [2] is 6.21; in assay [1] it was 7.41; on GTPase KRas [G12D,C118A], less than 3.60.
For `Cc1ccnc(C(C)C)c1-n1c(=O)nc(N2CCN(C(=O)COc3c(F)cccc3F)C[C@@H]2C)c2cc(Cl)c(-c3ccccc3F)nc21` [US20240190862, Example 8], the pIC50 is 4.62 in assay [1] and less than 3.60 against GTPase KRas [G12D,C118A].
For the compound `Cc1ccnc(C(C)C)c1-n1c(=O)nc(N2CCN(C(=O)C=[N+]=[N-])C[C@@H]2C)c2cc(Cl)c(-c3ccccc3F)nc21` [US20240190862, Example 13], the pIC50 was 5.07 in assay [2], 6.27 in assay [1] and less than 3.60 against GTPase KRas [G12D,C118A].

(Values after BindingDB's records for patent US20240190862 (Amgen, 2024).)
